According to PubChem BioAssay (NCI):
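In this assay, cells in 96-well plates receive the compound at five concentrations for 48 hours. Endpoints are linearly interpolated between the surrounding concentrations. GI50: concentration for 50% inhibition of growth. TGI: concentration producing complete growth inhibition.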

Tests used:
Assay in all cases: DTP human tumour cell line panel, 48 h
HS 578T breast = system: HS 578T breast
UACC-62 melanoma = system: UACC-62 melanoma
NCI-H522 lung = system: NCI-H522 lung
HCC-2998 colon = system: HCC-2998 colon
ACHN renal = system: ACHN renal
HL-60(TB) leukemia = system: HL-60(TB) leukemia
CAKI-1 renal = system: CAKI-1 renal
HCT-116 colon = system: HCT-116 colon
CCRF-CEM leukemia = system: CCRF-CEM leukemia
NCI-H460 lung = system: NCI-H460 lung
SF-295 CNS = system: SF-295 CNS
SF-539 CNS = system: SF-539 CNS
NCI-H226 lung = system: NCI-H226 lung
SNB-75 CNS = system: SNB-75 CNS
DU-145 prostate = system: DU-145 prostate
SW-620 colon = system: SW-620 colon
UACC-257 melanoma = system: UACC-257 melanoma
M14 melanoma = system: M14 melanoma
786-0 renal = system: 786-0 renal
NCI-H23 lung = system: NCI-H23 lung
MALME-3M melanoma = system: MALME-3M melanoma
COLO 205 colon = system: COLO 205 colon
SK-MEL-5 melanoma = system: SK-MEL-5 melanoma
HCT-15 colon = system: HCT-15 colon
NCI/ADR-RES ovarian = system: NCI/ADR-RES ovarian
MOLT-4 leukemia = system: MOLT-4 leukemia
TK-10 renal = system: TK-10 renal
HT29 colon = system: HT29 colon
SNB-19 CNS = system: SNB-19 CNS
T-47D breast = system: T-47D breast
SK-MEL-28 melanoma = system: SK-MEL-28 melanoma
UO-31 renal = system: UO-31 renal
SK-OV-3 ovarian = system: SK-OV-3 ovarian
KM12 colon = system: KM12 colon
U251 CNS = system: U251 CNS
EKVX NSCLC = system: EKVX NSCLC
HOP-92 NSCLC = system: HOP-92 NSCLC
MDA-MB-435 = system: MDA-MB-435
MCF7 breast = system: MCF7 breast
MDA-MB-231 breast = system: MDA-MB-231 breast
SK-MEL-2 melanoma = system: SK-MEL-2 melanoma
RXF 393 renal = system: RXF 393 renal
IGROV1 ovarian = system: IGROV1 ovarian
A498 renal = system: A498 renal
LOX IMVI melanoma = system: LOX IMVI melanoma
SF-268 CNS = system: SF-268 CNS
PC-3 prostate = system: PC-3 prostate
RPMI-8226 leukemia = system: RPMI-8226 leukemia
K-562 leukemia = system: K-562 leukemia
OVCAR-4 ovarian = system: OVCAR-4 ovarian
OVCAR-5 ovarian = system: OVCAR-5 ovarian
SR leukemia = system: SR leukemia
OVCAR-8 ovarian = system: OVCAR-8 ovarian
A549 NSCLC = system: A549 NSCLC
HOP-62 NSCLC = system: HOP-62 NSCLC
OVCAR-3 ovarian = system: OVCAR-3 ovarian
SN12C renal = system: SN12C renal
BT-549 breast = system: BT-549 breast

For `Nc1n[nH]c2cccc(C#Cc3cccc(NC(=O)c4ccc(N5CCOCC5)c(C(F)(F)F)c4)c3)c12`, the GI50 (HS 578T breast) was 508 nM, the TGI (HS 578T breast) was 3770 nM and the GI50 (UACC-62 melanoma) was 622 nM. It also gave a TGI (UACC-62 melanoma) of 2550 nM, a GI50 (NCI-H522 lung) of 1150 nM and a TGI (NCI-H522 lung) of 3560 nM. For the same compound, the GI50 (HCC-2998 colon) was 1320 nM, the TGI (HCC-2998 colon) was 3150 nM and the GI50 (ACHN renal) was 725 nM. For the same compound, the TGI (ACHN renal) was 4780 nM, the GI50 (HL-60(TB) leukemia) was 1400 nM and the TGI (HL-60(TB) leukemia) was 10500 nM. The GI50 (CAKI-1 renal) was 1130 nM, the TGI (CAKI-1 renal) was 2910 nM and the GI50 (HCT-116 colon) was 653 nM. For the same compound, the TGI (HCT-116 colon) was 2330 nM, the GI50 (CCRF-CEM leukemia) was 1360 nM and the TGI (CCRF-CEM leukemia) was 6580 nM. It also gave a GI50 (NCI-H460 lung) of 1460 nM, a TGI (NCI-H460 lung) of 3190 nM and a GI50 (SF-295 CNS) of 1370 nM. The TGI (SF-295 CNS) was 5200 nM, the GI50 (SF-539 CNS) was 310 nM and the TGI (SF-539 CNS) was 1540 nM. The GI50 (NCI-H226 lung) was 68.7 nM, the TGI (NCI-H226 lung) was 8530 nM and the GI50 (SNB-75 CNS) was 1070 nM. The TGI (SNB-75 CNS) was 2470 nM, the GI50 (DU-145 prostate) was 1810 nM and the TGI (DU-145 prostate) was 4370 nM. The GI50 (SW-620 colon) was 1130 nM, the TGI (SW-620 colon) was 5950 nM and the GI50 (UACC-257 melanoma) was 1770 nM. For the same compound, the TGI (UACC-257 melanoma) was 4380 nM, the GI50 (M14 melanoma) was 473 nM and the TGI (M14 melanoma) was 2200 nM. It also gave a GI50 (786-0 renal) of 2840 nM, a TGI (786-0 renal) of 7840 nM and a GI50 (NCI-H23 lung) of 1370 nM. The TGI (NCI-H23 lung) was 4600 nM, the GI50 (MALME-3M melanoma) was 540 nM and the TGI (MALME-3M melanoma) was 2120 nM. The GI50 (COLO 205 colon) was 525 nM, the TGI (COLO 205 colon) was 2330 nM and the GI50 (SK-MEL-5 melanoma) was 1560 nM. It also gave a TGI (SK-MEL-5 melanoma) of 3000 nM, a GI50 (HCT-15 colon) of 1540 nM and a TGI (HCT-15 colon) of 6440 nM. It also gave a GI50 (NCI/ADR-RES ovarian) of 2250 nM, a TGI (NCI/ADR-RES ovarian) of 7650 nM and a GI50 (MOLT-4 leukemia) of 1310 nM. It also gave a TGI (MOLT-4 leukemia) of 5710 nM, a GI50 (TK-10 renal) of 2050 nM and a TGI (TK-10 renal) of 4400 nM. For the same compound, the GI50 (HT29 colon) was 632 nM, the TGI (HT29 colon) was 4550 nM and the GI50 (SNB-19 CNS) was 2750 nM. It also gave a TGI (SNB-19 CNS) of 7390 nM, a GI50 (T-47D breast) of 1060 nM and a TGI (T-47D breast) of 3680 nM. The GI50 (SK-MEL-28 melanoma) was 867 nM, the TGI (SK-MEL-28 melanoma) was 2720 nM and the GI50 (UO-31 renal) was 567 nM. For the same compound, the TGI (UO-31 renal) was 2920 nM, the GI50 (SK-OV-3 ovarian) was 2090 nM and the TGI (SK-OV-3 ovarian) was 5250 nM. For the same compound, the GI50 (KM12 colon) was 1290 nM, the TGI (KM12 colon) was 2910 nM and the GI50 (U251 CNS) was 2060 nM. The TGI (U251 CNS) was 7410 nM, the GI50 (EKVX NSCLC) was 1610 nM and the TGI (EKVX NSCLC) was 4170 nM. For the same compound, the GI50 (HOP-92 NSCLC) was 768 nM, the TGI (HOP-92 NSCLC) was 3140 nM and the GI50 (MDA-MB-435) was 1090 nM. It also gave a TGI (MDA-MB-435) of 3310 nM, a GI50 (MCF7 breast) of 1800 nM and a TGI (MCF7 breast) of 7860 nM. It also gave a GI50 (MDA-MB-231 breast) of 720 nM, a TGI (MDA-MB-231 breast) of 2600 nM and a GI50 (SK-MEL-2 melanoma) of 855 nM. It also gave a TGI (SK-MEL-2 melanoma) of 3250 nM, a GI50 (RXF 393 renal) of 1020 nM and a TGI (RXF 393 renal) of 2830 nM. For the same compound, the GI50 (IGROV1 ovarian) was 682 nM, the TGI (IGROV1 ovarian) was 3540 nM and the GI50 (A498 renal) was 384 nM. For the same compound, the TGI (A498 renal) was 2090 nM, the GI50 (LOX IMVI melanoma) was 944 nM and the TGI (LOX IMVI melanoma) was 2160 nM. The GI50 (SF-268 CNS) was 1300 nM, the TGI (SF-268 CNS) was 5350 nM and the GI50 (PC-3 prostate) was 1930 nM. For the same compound, the TGI (PC-3 prostate) was 6830 nM, the GI50 (RPMI-8226 leukemia) was 1980 nM and the TGI (RPMI-8226 leukemia) was 6500 nM. The TGI (K-562 leukemia) was 13500 nM, the GI50 (OVCAR-4 ovarian) was 1060 nM and the TGI (OVCAR-4 ovarian) was 2980 nM. It also gave a GI50 (OVCAR-5 ovarian) of 599 nM, a TGI (OVCAR-5 ovarian) of 5260 nM and a GI50 (SR leukemia) of 2400 nM. It also gave a TGI (SR leukemia) greater than 100000 nM, a GI50 (OVCAR-8 ovarian) of 1920 nM and a TGI (OVCAR-8 ovarian) of 6830 nM. It also gave a GI50 (A549 NSCLC) of 1800 nM, a TGI (A549 NSCLC) of 6050 nM and a GI50 (HOP-62 NSCLC) of 1490 nM. For the same compound, the TGI (HOP-62 NSCLC) was 4390 nM, the GI50 (OVCAR-3 ovarian) was 1490 nM and the TGI (OVCAR-3 ovarian) was 5060 nM. It also gave a GI50 (SN12C renal) of 1560 nM, a TGI (SN12C renal) of 5800 nM and a GI50 (BT-549 breast) of 2080 nM. The TGI (BT-549 breast) was 6800 nM.
